Results from PMC5760531, “Action Potential Recording and Pro-arrhythmia Risk Analysis in Human Ventricular Trabeculae” (Frontiers in Physiology, 2018).

Legend:
[1] = human free (unbound) effective therapeutic plasma concentration used to calculate multiples; cited from earlier work
[2] = test system: human ventricular trabeculae; assay: Action potential recording and pro-arrhythmic score analysis in human ventricular trabeculae (hVT);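 note: sharp microelectrode action potential recordings at 37°C in Tyrode-perfused trabeculae, 4 cumulative concentrations each applied 31 min, values averaged over last 30 APs, vehicle 0.1% DMSO as control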
[3] = 1Hz, 0.1-FOLD free ETPC (0.003µM)
[4] = 1Hz, 1-FOLD free ETPC (0.003µM)
[5] = 1Hz, 10-FOLD free ETPC (0.003µM)
[6] = 1Hz, 100-FOLD free ETPC (0.003µM)
[7] = 2Hz, 0.1-FOLD free ETPC (0.003µM)
[8] = 2Hz, 1-FOLD free ETPC (0.003µM)
[9] = 2Hz, 10-FOLD free ETPC (0.003µM)
[10] = 2Hz, 100-FOLD free ETPC (0.003µM)

COc1cc(N)c(Cl)cc1C(=O)NC1CCN(CCCOc2ccc(F)cc2)CC1OC (stereo not shown) [CISAPRIDE, Cisapride]
Free ETPC [1]: 0.003 µM | AMAX [2, 3]: 111 | AMAX percentage change compared to vehicle control [2, 3]: -2% | APD30 [2, 3]: 153 | APD30 percentage change compared to vehicle control [2, 3]: -14% | APD50 [2, 3]: 205 | APD50 percentage change compared to vehicle control [2, 3]: -13% | APD90 [2, 3]: 281 | APD90 percentage change compared to vehicle control [2, 3]: -10% | Alternans [2, 3]: 0.75 | Alternans percentage change compared to vehicle control [2, 3]: 14% | Beat Escape [2, 3]: 0 | Beat Escape percentage change compared to vehicle control [2, 3]: 0% | EADs [2, 3]: 0 | EADs percentage change compared to vehicle control [2, 3]: 0% | ERP [2, 3]: 0.45 | ERP percentage change compared to vehicle control [2, 3]: 3% | Max Dispersion [2, 3]: 3.28 | Max Dispersion percentage change compared to vehicle control [2, 3]: 11% | RMP [2, 3]: -94 | RMP percentage change compared to vehicle control [2, 3]: -1% | Refractoriness Escape [2, 3]: 0 | Refractoriness Escape percentage change compared to vehicle control [2, 3]: 0% | STV [2, 3]: 0.54 | STV percentage change compared to vehicle control [2, 3]: 22% | Triangulation [2, 3]: 127 | Triangulation percentage change compared to vehicle control [2, 3]: -3% | AMAX [2, 4]: 111 | AMAX percentage change compared to vehicle control [2, 4]: -2% | APD30 [2, 4]: 161 | APD30 percentage change compared to vehicle control [2, 4]: -11% | APD50 [2, 4]: 213 | APD50 percentage change compared to vehicle control [2, 4]: -10% | APD90 [2, 4]: 286 | APD90 percentage change compared to vehicle control [2, 4]: -9% | Alternans [2, 4]: 0.76 | Alternans percentage change compared to vehicle control [2, 4]: 16% | Beat Escape [2, 4]: 0 | Beat Escape percentage change compared to vehicle control [2, 4]: 0% | EADs [2, 4]: 0 | EADs percentage change compared to vehicle control [2, 4]: 0% | ERP [2, 4]: 0.44 | ERP percentage change compared to vehicle control [2, 4]: 1% | Max Dispersion [2, 4]: 3.20 | Max Dispersion percentage change compared to vehicle control [2, 4]: 8% | RMP [2, 4]: -96 | RMP percentage change compared to vehicle control [2, 4]: 0% | Refractoriness Escape [2, 4]: 0 | Refractoriness Escape percentage change compared to vehicle control [2, 4]: 0% | STV [2, 4]: 0.57 | STV percentage change compared to vehicle control [2, 4]: 42% | Triangulation [2, 4]: 124 | Triangulation percentage change compared to vehicle control [2, 4]: -5% | AMAX [2, 5]: 111 | AMAX percentage change compared to vehicle control [2, 5]: -1% | APD30 [2, 5]: 148 | APD30 percentage change compared to vehicle control [2, 5]: -17% | APD50 [2, 5]: 206 | APD50 percentage change compared to vehicle control [2, 5]: -13% | APD90 [2, 5]: 285 | APD90 percentage change compared to vehicle control [2, 5]: -8% | Alternans [2, 5]: 0.37 | Alternans percentage change compared to vehicle control [2, 5]: -44% | Beat Escape [2, 5]: 0 | Beat Escape percentage change compared to vehicle control [2, 5]: 0% | EADs [2, 5]: 0 | EADs percentage change compared to vehicle control [2, 5]: 0% | ERP [2, 5]: 0.48 | ERP percentage change compared to vehicle control [2, 5]: 11% | Max Dispersion [2, 5]: 2.73 | Max Dispersion percentage change compared to vehicle control [2, 5]: -8% | RMP [2, 5]: -99 | RMP percentage change compared to vehicle control [2, 5]: 4% | Refractoriness Escape [2, 5]: 0 | Refractoriness Escape percentage change compared to vehicle control [2, 5]: 0% | STV [2, 5]: 0.27 | STV percentage change compared to vehicle control [2, 5]: -31% | Triangulation [2, 5]: 137 | Triangulation percentage change compared to vehicle control [2, 5]: 4% | AMAX [2, 6]: 116 | AMAX percentage change compared to vehicle control [2, 6]: 3% | APD30 [2, 6]: 158 | APD30 percentage change compared to vehicle control [2, 6]: -12% | APD50 [2, 6]: 224 | APD50 percentage change compared to vehicle control [2, 6]: -6% | APD90 [2, 6]: 312 | APD90 percentage change compared to vehicle control [2, 6]: 0% | Alternans [2, 6]: 0.54 | Alternans percentage change compared to vehicle control [2, 6]: -17% | Beat Escape [2, 6]: 0 | Beat Escape percentage change compared to vehicle control [2, 6]: 0% | EADs [2, 6]: 0 | EADs percentage change compared to vehicle control [2, 6]: 0% | ERP [2, 6]: 0.49 | ERP percentage change compared to vehicle control [2, 6]: 14% | Max Dispersion [2, 6]: 2.75 | Max Dispersion percentage change compared to vehicle control [2, 6]: -7% | RMP [2, 6]: -102 | RMP percentage change compared to vehicle control [2, 6]: 7% | Refractoriness Escape [2, 6]: 0 | Refractoriness Escape percentage change compared to vehicle control [2, 6]: 0% | STV [2, 6]: 0.37 | STV percentage change compared to vehicle control [2, 6]: 3% | Triangulation [2, 6]: 154 | Triangulation percentage change compared to vehicle control [2, 6]: 17% | AMAX [2, 7]: 110 | AMAX percentage change compared to vehicle control [2, 7]: -2% | APD30 [2, 7]: 114 | APD30 percentage change compared to vehicle control [2, 7]: -10% | APD50 [2, 7]: 157 | APD50 percentage change compared to vehicle control [2, 7]: -8% | APD90 [2, 7]: 228 | APD90 percentage change compared to vehicle control [2, 7]: -6% | Alternans [2, 7]: 0.98 | Alternans percentage change compared to vehicle control [2, 7]: 18% | Beat Escape [2, 7]: 0 | Beat Escape percentage change compared to vehicle control [2, 7]: 0% | EADs [2, 7]: 0 | EADs percentage change compared to vehicle control [2, 7]: 0% | ERP [2, 7]: 0.47 | ERP percentage change compared to vehicle control [2, 7]: 1% | Max Dispersion [2, 7]: 4.08 | Max Dispersion percentage change compared to vehicle control [2, 7]: 3% | RMP [2, 7]: -94 | RMP percentage change compared to vehicle control [2, 7]: 0% | Refractoriness Escape [2, 7]: 0 | Refractoriness Escape percentage change compared to vehicle control [2, 7]: 0% | STV [2, 7]: 0.76 | Triangulation [2, 7]: 114 | Triangulation percentage change compared to vehicle control [2, 7]: -2% | AMAX [2, 8]: 109 | AMAX percentage change compared to vehicle control [2, 8]: -3% | APD30 [2, 8]: 115 | APD30 percentage change compared to vehicle control [2, 8]: -10% | APD50 [2, 8]: 156 | APD50 percentage change compared to vehicle control [2, 8]: -10% | APD90 [2, 8]: 225 | APD90 percentage change compared to vehicle control [2, 8]: -8% | Alternans [2, 8]: 0.99 | Alternans percentage change compared to vehicle control [2, 8]: 20% | Beat Escape [2, 8]: 0 | Beat Escape percentage change compared to vehicle control [2, 8]: 0% | EADs [2, 8]: 0 | EADs percentage change compared to vehicle control [2, 8]: 0% | ERP [2, 8]: 0.46 | ERP percentage change compared to vehicle control [2, 8]: 1% | Max Dispersion [2, 8]: 4.38 | Max Dispersion percentage change compared to vehicle control [2, 8]: 10% | RMP [2, 8]: -94 | RMP percentage change compared to vehicle control [2, 8]: 0% | Refractoriness Escape [2, 8]: 0 | Refractoriness Escape percentage change compared to vehicle control [2, 8]: 0% | STV [2, 8]: 0.66 | Triangulation [2, 8]: 110 | Triangulation percentage change compared to vehicle control [2, 8]: -6% | AMAX [2, 9]: 114 | AMAX percentage change compared to vehicle control [2, 9]: 1% | APD30 [2, 9]: 110 | APD30 percentage change compared to vehicle control [2, 9]: -13% | APD50 [2, 9]: 157 | APD50 percentage change compared to vehicle control [2, 9]: -9% | APD90 [2, 9]: 231 | APD90 percentage change compared to vehicle control [2, 9]: -5% | Alternans [2, 9]: 0.63 | Alternans percentage change compared to vehicle control [2, 9]: -24% | Beat Escape [2, 9]: 0 | Beat Escape percentage change compared to vehicle control [2, 9]: 0% | EADs [2, 9]: 0 | EADs percentage change compared to vehicle control [2, 9]: 0% | ERP [2, 9]: 0.50 | ERP percentage change compared to vehicle control [2, 9]: 10% | Max Dispersion [2, 9]: 2.55 | Max Dispersion percentage change compared to vehicle control [2, 9]: -36% | RMP [2, 9]: -100 | RMP percentage change compared to vehicle control [2, 9]: 6% | Refractoriness Escape [2, 9]: 0 | Refractoriness Escape percentage change compared to vehicle control [2, 9]: 0% | STV [2, 9]: 0.45 | Triangulation [2, 9]: 122 | Triangulation percentage change compared to vehicle control [2, 9]: 4% | AMAX [2, 10]: 114 | AMAX percentage change compared to vehicle control [2, 10]: 2% | APD30 [2, 10]: 114 | APD30 percentage change compared to vehicle control [2, 10]: -10% | APD50 [2, 10]: 168 | APD50 percentage change compared to vehicle control [2, 10]: -3% | APD90 [2, 10]: 254 | APD90 percentage change compared to vehicle control [2, 10]: 4% | Alternans [2, 10]: 0.75 | Alternans percentage change compared to vehicle control [2, 10]: -9% | Beat Escape [2, 10]: 0 | Beat Escape percentage change compared to vehicle control [2, 10]: 0% | EADs [2, 10]: 0 | EADs percentage change compared to vehicle control [2, 10]: 0% | ERP [2, 10]: 0.52 | ERP percentage change compared to vehicle control [2, 10]: 13% | Max Dispersion [2, 10]: 3.75 | Max Dispersion percentage change compared to vehicle control [2, 10]: -6% | RMP [2, 10]: -101 | RMP percentage change compared to vehicle control [2, 10]: 7% | Refractoriness Escape [2, 10]: 0 | Refractoriness Escape percentage change compared to vehicle control [2, 10]: 0% | STV [2, 10]: 0.56 | Triangulation [2, 10]: 140 | Triangulation percentage change compared to vehicle control [2, 10]: 20%
